This note sets out measurements from patent US7425551B2, “Malonamide derivatives” (Hoffmann-La Roche Inc., priority 2006, dated 2008).

This assay concerns the target T1, γ-secretase (Homo sapiens, UniProt P49768).
T1 construct: uses a HEK293 membrane fraction as a source of γ-secretase; endogenous in cells; host or cells: HEK293 (microsomal membrane fraction, solubilised in 0.25% CHAPSO)
Description: in vitro assay of γ-secretase activity (HEK293 membrane fraction, recombinant APP substrate, Abeta ELISA). The format is biochemical. Particulars: γ-secretase inhibition; HEK293 membrane fraction solubilized in 0.25% CHAPSO, recombinant human APP C-terminal 100 amino acids substrate, Abeta detected by ELISA. The source says:
Description of 1γ-Secretase Assay The activity of test compounds can be evaluated in assays which measure the proteolytic cleavage of suitable substrates by γ-secretase activity. These can be cellular assays where e.g., a substrate of the γ-secretase is fused in its cytoplasmic domain to a transcription factor. Cells are transfected with this fusion gene and a reporter gene, e.g., firefly luciferase, which expression is enhanced by the transcription factor. Cleavage of the fused substrate by γ-secretase will lead to expression of the reporter gene which can be monitored in appropriate assays. The γ-secretase activity can also be determined in cell-free in vitro assays where e.g., a cell lysate containing the γ-secretase complex is incubated with a suitable APP-derived substrate which is cleaved to the Abeta peptides. The amount of produced peptides can be determined with specific ELISA assays. Cell lines of neuronal origin secrete Abeta peptides which can be measured with the specific ELISA assay. Treatment with compounds which inhibit γ-secretase leads to a reduction of secreted Abeta thus providing a measure of inhibition. The in vitro assay of γ-secretase activity uses a HEK293 membrane fraction as a source of γ-secretase and a recombinant APP substrate. Latter consist of the C-terminal 100 amino acids of human APP fused to a 6× Histidin tail for purification which is expressed in E. coli in a regulatable expression vector, e.g. pEt15. This recombinant protein corresponds to the truncated APP fragment which results after […] of the extracellular domain and which constitutes the γ-secretase substrate. The assay principle is described in Li Y M et al, PNAS 97(11), 6138-6143 (2000). Hek293 cells are mechanically disrupted and the microsomal fraction is isolated by differential centrifugation. The membranes are solubilized in detergent (0.25% CHAPSO) and incubated with the APP substrate. The Abeta peptides which are produced by γ-secretase cleavage of the substrate are detected by specific ELISA assays as described (Brockhaus M et al, Neuroreport 9(7), 1481-1486 (1998).
(An ELISA detects its analyte on a solid surface through an enzyme-linked reagent.)

Molecules are shown by their SMILES.

As a reminder, the IC50 is the concentration that inhibits the measured activity by half. For `COCCN1C(=O)[C@@H](NC(=O)C(C)(O)C(=O)NCC(F)(F)C(F)(F)F)c2ccccc2-c2ccccc21` (single isomer, unassigned; epimer a) [Example 45], the IC50 worked out at 9 nM.
The same measure for `C[C@H](OC(=O)NCCC(F)(F)C(F)(F)F)C(=O)N[C@@H]1C(=O)N(CCOCc2ccccc2)c2ccccc2-c2ccccc21` [Example 36, (3,3,4,4,4-Pentafluoro-butyl)-carbamic acid (S)-1-[(S)-5-(2-benzyloxy-ethyl)-6-oxo-6,7-dihydro-5H-dibenzo[b,d]azepin-7-ylcarbamoyl]-ethyl ester]: 13 nM.
As to `C[C@H](OC(=O)NCC(F)(F)C(F)(F)F)C(=O)N[C@@H]1C(=O)N(CCOCc2ccccc2)c2ccccc2-c2ccccc21` [Example 5, (2,2,3,3,3-Pentafluoro-propyl)-carbamic acid (S)-1-[(S)-5-(2-benzyloxy-ethyl)-6-oxo-6,7-dihydro-5H-dibenzo[b,d]azepin-7-ylcarbamoyl]-ethyl ester], the IC50 is 11 nM.
Regarding `COCCN1C(=O)[C@@H](NC(=O)C(C)(O)C(=O)NCC(F)(F)C(F)(F)F)c2ccccc2-c2ccccc21` (single isomer, unassigned; epimer b) [Example 46], the IC50 turned out to be 2 nM.
For the molecule `C[C@H](OC(=O)NCC(F)(F)F)C(=O)N[C@@H]1C(=O)N(CCOCc2ccccc2)c2ccccc2-c2ccccc21` [Example 37, (2,2,2-Trifluoro-ethyl)-carbamic acid (S)-1-[(S)-5-(2-benzyloxy-ethyl)-6-oxo-6,7-dihydro-5H-dibenzo[b,d]azepin-7-ylcarbamoyl]-ethyl ester], the IC50 worked out at 18 nM.
The same measure for `C[C@](O)(C(=O)NCC(F)(F)F)C(=O)N[C@@H]1C(=O)N(CCOCc2ccccc2)c2ccccc2-c2ccccc21` [Example 58, (S)—N—[(S)-5-(2-Benzyloxy-ethyl)-6-oxo-6,7-dihydro-5H-dibenzo[b,d]azepin-7-yl]-2-hydroxy-2-methyl-N′-(2,2,2-trifluoro-ethyl)-malonamide]: 8 nM; for `C[C@](F)(C(=O)NCC(F)(F)F)C(=O)N[C@@H]1C(=O)N(CCOCc2ccccc2)c2ccccc2-c2ccccc21` [Example 43, (S)—N—[(S)-5-(2-Benzyloxy-ethyl)-6-oxo-6,7-dihydro-5H-dibenzo[b,d]azepin-7-yl]-2-fluoro-2-methyl-N′-(2,2,2-trifluoro-ethyl)-malonamide]: 13 nM.
Regarding `COC(C(=O)NCC(F)(F)C(F)(F)F)C(=O)N[C@@H]1C(=O)N(CCO)c2ccccc2-c2ccccc21` (stereo partly drawn) [Example 11, N—[(S)-5-(2-Hydroxy-ethyl)-6-oxo-6,7-dihydro-5H-dibenzo[b,d]azepin-7-yl]-2-methoxy-N′-(2,2,3,3,3-pentafluoro-propyl)-malonamide], the IC50 was 7 nM.
In the case of `CC(O)(C(=O)NCC(F)(F)C(F)(F)F)C(=O)N[C@@H]1C(=O)N(CCO)c2ccccc2-c2ccccc21` (single isomer, unassigned; epimer b) [Example 21], the IC50 was determined as 1 nM.
The same measure for `CC(O)(C(=O)NCCC(F)(F)C(F)(F)F)C(=O)N[C@@H]1C(=O)N(CCO)c2ccccc2-c2ccccc21` (stereo partly drawn) [Example 56, 2-Hydroxy-N—[(S)-5-(2-hydroxy-ethyl)-6-oxo-6,7-dihydro-5H-dibenzo[b,d]azepin-7-yl]-2-methyl-N′-(3,3,4,4,4-pentafluoro-butyl)-malonamide]: 2 nM; for `CCOC(C(=O)NCC(F)(F)C(F)(F)F)C(=O)N[C@@H]1C(=O)N(CCO)c2ccccc2-c2ccccc21` (single isomer, unassigned; epimer a) [Example 18, (S or R)-2-Ethoxy-N—[(S)-5-(2-hydroxy-ethyl)-6-oxo-6,7-dihydro-5H-dibenzo[b,d]azepin-7-yl]-N′-(2,2,3,3,3-pentafluoro-propyl)-malonamide, epimer A]: 7 nM; for `C[C@@](F)(C(=O)NCC(F)(F)C(F)(F)F)C(=O)N[C@@H]1C(=O)N(CCO)c2ccccc2-c2ccccc21` [Example 26, (R)-2-Fluoro-N—[(S)-5-(2-hydroxy-ethyl)-6-oxo-6,7-dihydro-5H-dibenzo[b,d]azepin-7-yl]-2-methyl-N′-(2,2,3,3,3-pentafluoro-propyl)-malonamide]: 1 nM.
The same measure for `C[C@H](OC(=O)NCCF)C(=O)N[C@@H]1C(=O)N(CCOCc2ccccc2)c2ccccc2-c2ccccc21` [Example 41, (2-Fluoro-ethyl)-carbamic acid (S)-1-[(S)-5-(2-benzyloxy-ethyl)-6-oxo-6,7-dihydro-5H-dibenzo[b,d]azepin-7-ylcarbamoyl]-ethyl ester]: 480 nM.
For the molecule `COCCN1C(=O)[C@@H](NC(=O)C(C)(O)C(=O)NCC(F)(F)C(F)(F)F)c2ccccc2-c2ccccc21` (stereo partly drawn) [Example 34, 2-Hydroxy-N—[(S)-5-(2-methoxy-ethyl)-6-oxo-6,7-dihydro-5H-dibenzo[b,d]azepin-7-yl]-2-methyl-N′-(2,2,3,3,3-pentafluoro-propyl)-malonamide], the IC50 worked out at 4 nM.
Regarding `CC(C(=O)NCC(F)(F)C(F)(F)F)C(=O)N[C@@H]1C(=O)N(CCO)c2ccccc2-c2ccccc21` (stereo partly drawn) [Example 3, N—[(S)-5-(2-Hydroxy-ethyl)-6-oxo-6,7-dihydro-5H-dibenzo[b,d]azepin-7-yl]-2-methyl-N ′-(2,2,3,3,3-pentafluoro-propyl)-malonamide], the IC50 stood at 1 nM.
In the case of `CC(O)(C(=O)NCCC(F)(F)F)C(=O)N[C@@H]1C(=O)N(CCO)c2ccccc2-c2ccccc21` (single isomer, unassigned; epimer a) [Example 65, (R or S)-2-Hydroxy-N—[(S)-5-(2-hydroxy-ethyl)-6-oxo-6,7-dihydro-5H-dibenzo[b,d]azepin-7-yl]-2-methyl-N′-(3,3,3-trifluoro-propyl)-malonamide, epimer A], the IC50 is 39 nM.
Regarding `C[C@@](F)(C(=O)NCC(F)(F)F)C(=O)N[C@@H]1C(=O)N(CCOCc2ccccc2)c2ccccc2-c2ccccc21` [Example 52, (R)—N—[(S)-5-(2-Benzyloxy-ethyl)-6-oxo-6,7-dihydro-5H-dibenzo[b,d]azepin-7-yl]-2-fluoro-2-methyl-N′-(2,2,2-trifluoro-ethyl)-malonamide], the half-maximal inhibitory concentration (IC50) stood at 10 nM.
In the case of `CC(F)(C(=O)NCC(F)(F)C(F)(F)F)C(=O)N[C@@H]1C(=O)N(CCO)c2ccccc2-c2ccccc21` (stereo partly drawn) [Example 16, 2-Fluoro-N—[(S)-5-(2-hydroxy-ethyl)-6-oxo-6,7-dihydro-5H-dibenzo[b,d]azepin-7-yl]-2-methyl-N′-(2,2,3,3,3-pentafluoro-propyl)-malonamide], the IC50 amounted to 3 nM.
For `C[C@](F)(C(=O)NCCC(F)(F)C(F)(F)F)C(=O)N[C@@H]1C(=O)N(CCO)c2ccccc2-c2ccccc21` [Example 50, (S)-2-Fluoro-N—[(S)-5-(2-hydroxy-ethyl)-6-oxo-6,7-dihydro-5H-dibenzo[b,d]azepin-7-yl]-2-methyl-N′-(3,3,4,4,4-pentafluoro-butyl)-malonamide], the IC50 was found to be 16 nM.
`CC(C(=O)NCC(F)(F)C(F)(F)F)C(=O)N[C@@H]1C(=O)N(CCOCc2ccccc2)c2ccccc2-c2ccccc21` (stereo partly drawn) [Example 2, N—[(S)-5-(2-Benzyloxy-ethyl)-6-oxo-6,7-dihydro-5H-dibenzo[b,d]azepin-7-yl]-2-methyl-N′-(2,2,3,3,3-pentafluoro-propyl)-malonamide]: the IC50 turned out to be 6 nM.
On to `C[C@](F)(C(=O)NCC(F)(F)F)C(=O)N[C@@H]1C(=O)N(CCO)c2ccccc2-c2ccccc21` [Example 49, (S)-2-Fluoro-N—[(S)-5-(2-hydroxy-ethyl)-6-oxo-6,7-dihydro-5H-dibenzo[b,d]azepin-7-yl]-2-methyl-N′-(2,2,2-trifluoro-ethyl)-malonamide], for which the IC50 was found to be 157 nM.
Take `C[C@H](OC(=O)NCC(F)(F)F)C(=O)N[C@@H]1C(=O)N(CCO)c2ccccc2-c2ccccc21` [Example 48, (2,2,2-Trifluoro-ethyl)-carbamic acid (S)-1-[(S)-5-(2-hydroxy-ethyl)-6-oxo-6,7-dihydro-5H-dibenzo[b,d]azepin-7-ylcarbamoyl]-ethyl ester]: the IC50 is 14 nM.
On to `CC(C)(C(=O)NCC(F)(F)C(F)(F)F)C(=O)N[C@@H]1C(=O)N(CCOc2ccc(F)cc2)c2ccccc2-c2ccccc21` [Example 69, N-{(S)-5-[2-(4-Fluoro-phenoxy)-ethyl]-6-oxo-6,7-dihydro-5H-dibenzo[b,d]azepin-7-yl}-2,2-dimethyl-N′-(2,2,3,3,3-pentafluoro-propyl)-malonamide], for which the IC50 was found to be 6 nM.
The same measure for `CCOC(C(=O)NCC(F)(F)C(F)(F)F)C(=O)N[C@@H]1C(=O)N(CCOCc2ccccc2)c2ccccc2-c2ccccc21` (stereo partly drawn) [Example 14]: 8 nM.
